Assay results as given in paper PMC4870834 (Biochemistry, 2015).
pKd: −log10 of the molar value.

Assays:
Experiment in all cases: intrinsic fluorescence titration
Assay type in all cases: binding
SULT1A1 [1] = target: SULT1A1 (Homo sapiens, UniProt P50225)
SULT1A1 [2] = target: SULT1A1 (Homo sapiens, UniProt P50225, V243G)
SULT1A1 [3] = target: SULT1A1 (Homo sapiens, UniProt P50225, D249S)
SULT1A1 [4] = target: SULT1A1 (Homo sapiens, UniProt P50225, F255A)
SULT1A1 [5] = target: SULT1A1 (Homo sapiens, UniProt P50225, I89A)
Sequence of SULT1A1 (Homo sapiens, UniProt P50225, I89A) (P50225 whole entry I89A): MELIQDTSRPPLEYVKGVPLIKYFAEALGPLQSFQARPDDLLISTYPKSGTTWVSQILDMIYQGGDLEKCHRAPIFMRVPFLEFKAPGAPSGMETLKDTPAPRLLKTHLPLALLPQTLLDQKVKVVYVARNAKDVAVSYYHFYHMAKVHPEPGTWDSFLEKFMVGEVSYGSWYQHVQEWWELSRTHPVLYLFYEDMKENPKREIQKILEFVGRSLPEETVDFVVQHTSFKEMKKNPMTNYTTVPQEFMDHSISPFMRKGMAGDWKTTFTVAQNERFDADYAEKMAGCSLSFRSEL

Sequence of SULT1A1 (Homo sapiens, UniProt P50225, D249S) (P50225 whole entry D249S): as the sequence (P50225 whole entry I89A) above, with A89I, D249S counted along it
Sequence of SULT1A1 (Homo sapiens, UniProt P50225) (P50225 whole entry): as the sequence (P50225 whole entry I89A) above, with A89I counted along it
Sequence of SULT1A1 (Homo sapiens, UniProt P50225, V243G) (P50225 whole entry V243G): as the sequence (P50225 whole entry I89A) above, with A89I, V243G counted along it
Sequence of SULT1A1 (Homo sapiens, UniProt P50225, F255A) (P50225 whole entry F255A): as the sequence (P50225 whole entry I89A) above, with A89I, F255A counted along it

pKd (SULT1A1 [1]) | pKd (SULT1A1 [2]) | pKd (SULT1A1 [3]) | pKd (SULT1A1 [4]) | pKd (SULT1A1 [5]) | SMILES
5.77 | 5.89 | 5.80 | 5.82 | 5.96 | C[C@]12CC[C@@H]3c4ccc(O)cc4C[C@@H](CCCCCCCCC[S+]([O-])CCCC(F)(F)C(F)(F)F)[C@H]3[C@@H]1CC[C@@H]2O (stereo partly shown) [fulvestrant]
5.82 | 5.66 | 5.66 | 5.70 | 5.74 | Oc1ccc2ccccc2c1 [2-Nap]
 | 6.05 | 6.05 | 6.05 | 5.82 | C[C@]12CC[C@@H]3c4ccc(O)cc4CC[C@H]3[C@@H]1CC[C@@H]2O [E2]
6.57 | 6.55 | 6.52 | 6.57 | 6.51 | Nc1ncnc2c1ncn2[C@@H]1O[C@H](COP(=O)(O)O)[C@@H](OP(=O)(O)O)[C@H]1O [PAP]
